Test results: patent US11198694B2, “HDAC6 inhibitors, with improved solubility and their uses” (UNIVERSITÄT REGENSBURG, priority 2017, dated 2021)

Columns and labels:
[1] = Solubility in H2O; format: physicochemical; conditions: water
[2] = target: T1, human HDAC2 (Homo sapiens, UniProt Q92769); assay: Fluorescence HDAC enzyme inhibition assay (Reaction Biology Corporation); format: biochemical
T1 construct: purchased Reaction Biology Corporation HDAC2
Procedure: (§1) The IC50 values for the various inhibitors against the isoenzymes of HDAC were measured by Reaction Biology Corporation (Malvern, Pa., USA) (Buffer, Kalin et al. 2010): For the enzyme inhibition assay, human recombinant protein material was used (human HDAC2 (CAT #: HDAC2), human HDAC6 (CAT #: HDAC6) or human HDAC8 (CAT #: HDAC8)). A 10-point dose response curve was prepared using a 3-fold dilution series (1:3), started at a concentration of 1 μM in DMSO for the synthesized drugs and 10 μM in DMSO for the reference substance Trichostatin A231 (TSA, for HDAC 2, 6 and 8). Reaction time was 90 minutes at 37° C. in a volume of 50 μL in a 96 well plate. Reaction buffer: 50 mM Tris-HCl, pH=8.0, 137 mM NaCl, 2.7 mM KCl, and 1 mM MgCl2 freshly added: 1 mg/ml bovine serum albumin. The fluorescence was measured using a fluoroscope Ascent™ FL fluorometer. The percent enzyme activity was calculated relative to the DMSO control. IC50 values were calculated using GraphPad Prism (GraphPad Prism 4.0 Software, San Diego, USA) based on a sigmoidal dose-response equation.
(§2) HDAC enzyme inhibition assays were conducted by Reaction Biology Corporation (Malvern, Pa., USA) using a ten point dose response curve with half-log serial dilutions, fluorogenic peptides at 50 μM as enzymatic substrates. Substrate for HDAC 2 and 6: fluorogenic peptide from p53 residues 379-382 (RHKK(Ac)AMC). Substrate for HDAC-8: fluorogenic peptide from p53 residues 379-382 (RHK(Ac)K(Ac)AMC).

[3] = target: T2, human HDAC6 (Homo sapiens, UniProt Q9UBN7); assay: as above; format: biochemical
T2 construct: purchased Reaction Biology Corporation HDAC6
T2 sequence (Q9UBN7 1-1215): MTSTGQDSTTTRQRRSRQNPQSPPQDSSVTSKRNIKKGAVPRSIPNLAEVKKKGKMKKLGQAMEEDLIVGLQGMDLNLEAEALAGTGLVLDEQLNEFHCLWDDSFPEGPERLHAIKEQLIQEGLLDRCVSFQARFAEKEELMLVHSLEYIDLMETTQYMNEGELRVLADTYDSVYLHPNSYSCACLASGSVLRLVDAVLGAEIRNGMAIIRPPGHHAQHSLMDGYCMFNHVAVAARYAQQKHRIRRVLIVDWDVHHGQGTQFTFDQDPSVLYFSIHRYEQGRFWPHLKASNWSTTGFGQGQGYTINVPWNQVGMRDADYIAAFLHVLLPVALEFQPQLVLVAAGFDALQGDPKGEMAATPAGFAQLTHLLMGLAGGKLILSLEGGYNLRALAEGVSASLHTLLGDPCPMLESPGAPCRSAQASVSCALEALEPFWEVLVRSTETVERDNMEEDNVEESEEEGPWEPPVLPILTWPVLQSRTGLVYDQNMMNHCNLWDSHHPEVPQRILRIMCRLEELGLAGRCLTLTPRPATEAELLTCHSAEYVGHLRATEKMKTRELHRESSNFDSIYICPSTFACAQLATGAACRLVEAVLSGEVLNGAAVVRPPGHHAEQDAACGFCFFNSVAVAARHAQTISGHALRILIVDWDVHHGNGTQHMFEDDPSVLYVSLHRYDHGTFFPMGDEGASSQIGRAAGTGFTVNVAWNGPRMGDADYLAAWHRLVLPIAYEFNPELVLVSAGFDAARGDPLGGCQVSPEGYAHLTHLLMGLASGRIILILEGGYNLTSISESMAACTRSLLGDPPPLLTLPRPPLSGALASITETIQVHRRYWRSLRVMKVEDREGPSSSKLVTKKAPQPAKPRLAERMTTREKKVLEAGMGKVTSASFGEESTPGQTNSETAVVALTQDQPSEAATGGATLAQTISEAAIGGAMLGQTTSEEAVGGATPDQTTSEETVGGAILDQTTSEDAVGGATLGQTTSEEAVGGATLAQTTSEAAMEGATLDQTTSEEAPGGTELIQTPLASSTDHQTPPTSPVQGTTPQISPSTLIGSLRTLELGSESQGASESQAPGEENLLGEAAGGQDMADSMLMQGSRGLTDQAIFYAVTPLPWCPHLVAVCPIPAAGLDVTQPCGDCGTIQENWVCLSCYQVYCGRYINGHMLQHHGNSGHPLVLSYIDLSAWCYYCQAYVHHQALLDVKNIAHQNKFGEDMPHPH
Procedure: as §1, §2

[4] = target: T3, human HDAC8 (Homo sapiens, UniProt Q9BY41); assay: as above; format: biochemical
T3 construct: purchased Reaction Biology Corporation HDAC8
T3 sequence (Q9BY41 1-377): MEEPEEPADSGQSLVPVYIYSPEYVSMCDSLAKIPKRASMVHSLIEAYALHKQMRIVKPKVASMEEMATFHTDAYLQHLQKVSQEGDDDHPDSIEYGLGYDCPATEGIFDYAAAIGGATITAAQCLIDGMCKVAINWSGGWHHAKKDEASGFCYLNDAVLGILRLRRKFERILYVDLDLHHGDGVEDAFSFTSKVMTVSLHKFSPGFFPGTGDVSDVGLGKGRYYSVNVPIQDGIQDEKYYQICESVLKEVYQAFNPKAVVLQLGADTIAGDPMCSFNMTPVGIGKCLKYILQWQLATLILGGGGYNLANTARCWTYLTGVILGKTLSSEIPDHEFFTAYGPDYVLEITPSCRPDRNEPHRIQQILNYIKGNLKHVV
Procedure: as §1, §2

T1 sequence (Q92769 whole entry): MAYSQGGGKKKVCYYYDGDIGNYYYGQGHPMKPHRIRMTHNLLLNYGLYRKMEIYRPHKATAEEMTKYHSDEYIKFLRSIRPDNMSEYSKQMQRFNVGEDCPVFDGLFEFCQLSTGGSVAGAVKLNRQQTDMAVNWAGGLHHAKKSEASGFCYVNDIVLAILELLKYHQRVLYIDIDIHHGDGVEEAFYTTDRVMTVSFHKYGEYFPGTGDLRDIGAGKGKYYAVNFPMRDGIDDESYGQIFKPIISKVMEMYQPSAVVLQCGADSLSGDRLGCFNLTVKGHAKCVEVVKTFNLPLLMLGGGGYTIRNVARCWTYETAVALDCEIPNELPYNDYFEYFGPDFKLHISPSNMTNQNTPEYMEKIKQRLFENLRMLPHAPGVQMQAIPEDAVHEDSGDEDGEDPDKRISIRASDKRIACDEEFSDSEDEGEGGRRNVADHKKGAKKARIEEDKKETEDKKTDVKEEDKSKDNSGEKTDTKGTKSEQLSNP

solubility [1] [µg/mL] | IC50 [2] [nM] | IC50 [3] [nM] | IC50 [4] [nM] | melting point [°C] | Structure (SMILES)
< 1000 |  |  |  |  | CN1C(=O)C2CN(Cc3c2c2ccccc2n3Cc2ccc(C(=O)NO)cc2)C1=O (stereo not drawn)
 | 13000 | 7.05 | 1970 |  | CN1C(=O)[C@H]2CN(Cc3c2c2cc(OCCN4CCOCC4)ccc2n3Cc2ccc(C(=O)NO)cc2)C1=O [(R)-21, N-Hydroxy-4-(((6R)-4-methyl-8-(2-morpholinoethoxy)-3,5-dioxo-3,4,5,6-tetrahydro-2,6-methano[1,3]diazocino[5,6-b]indole-11(1B)-yl)methyl)benzamide]
 | 1800 | 3.02 | 364 |  | CN1C(=O)[C@@H]2CN(Cc3c2c2cc(OCCN4CCOCC4)ccc2n3Cc2ccc(C(=O)NO)cc2)C1=O [(S)-21, N-Hydroxy-4-(((6S)-4-methyl-8-(2-morpholinoethoxy)-3,5-dioxo-3,4,5,6-tetrahydro-2,6-methano[1,3]diazocino[5,6-b]indole-11(1H)-yl)methyl)benzamide]
 |  | 2.41 ± 0.76 | 121 ± 10 |  | CN1C(=O)C2CN(Cc3c2c2cc(OCCN4CCOCC4)ccc2n3Cc2ccc(C(=O)NO)cc2)C1=O (stereo not drawn) [Compound 21, 4-(2-((11-(4-(Hydroxycarbamoyl)benzyl)-4-methyl-3,5-dioxo-1,3,4,5,6,11-hexahydro-2,6-methano[1,3]diazocino[5,6-b]indol-8-yl)oxy)ethyl)morpholin-4-ium chloride]
 |  | 8.99 ± 1.11 |  | 248.1 to 251.7 | CN1C(=O)C2c3c(n(Cc4ccc(C(=O)NO)cc4)c4ccccc34)CCN2C1=O (stereo not drawn) [Compound 31a, N-Hydroxy-4-((2-methyl-1,3-dioxo-2,3,5,6-tetrahydro-1H-imidazo[1′,5′:1,2]pyrido[4,3-b]indol-7(11cH)-yl)methyl)benzamide]
 |  | 16.4 ± 0.75 | 251 ± 32.5 |  | CN1CC(=O)N2CCc3c(c4ccccc4n3Cc3ccc(C(=O)NO)cc3)C2C1=O (stereo not drawn) [Compound 31b, N-hydroxy-4-((2-methyl-1,4-dioxo-1,3,4,6,7,12c-hexahydropyrazino[1′,2′:1,2]pyrido[4,3-b]indol-8(2H)-yl)methyl)benzamide]
 |  | 30.7 ± 5.8 | 83 ± 6 |  | CN1C(=O)C2c3c(c4ccccc4n3Cc3ccc(C(=O)NO)cc3)CCN2C1=O (stereo not drawn) [Compound 41, N-Hydroxy-4-((2-methyl-1,3-dioxo-2,3,5,6-tetrahydro-1H-imidazo[1′,5′:1,2]pyrido[3,4-b]indol-11(11bH)-yl)methyl)benzamide]
